Test results taken from patent US20120115157A1, “Methods for Screening for Antibiotic Compounds” (Trustees of Dartmouth College, priority 2009, published 2012).
In brackets after ≈: the same amount, converted by molar mass.

Tested on: S. aureus
Assay: Minimum Inhibitory Concentration (MIC), inhibition of growth of S. aureus in vitro
Assay type: cell-based
Settings: Staphylococcus aureus
Excerpt: The next step will be to test the drugs for activity in vitro to inhibit growth of bacterial cells and determination of minimum inhibitory concentration (MIC) doses for the drugs. Determining MIC doses is a standard assay in development of antibiotic drugs and methods are well known in the art. For example, MIC can be determined according to the Clinical and Laboratory Standards Institute guidelines.
Once the compounds of the present invention were identified through the MazEF screening assay described above, the activity of the compounds to inhibit growth of S. aureus in vitro was tested using the standard method of determining Minimum Inhibitory Concentrations (MICS). Such methods are well known to those of skill in the art since determining MIC doses is a standard assay in development of antibiotic drugs. For example, MIC values can be determined according to the Clinical and Laboratory Standards Institute guidelines. In Table 1, the MIC values are presented for each of the ten compounds identified through the MazEF screening assay as having potential for antibiotic activity in S. aureus.

Structure (SMILES) | MIC [µg/mL]
O=C1c2ccccc2-c2onc3ccc(Cl)c1c23 [Compound 5, 5-chloro-6H-anthra[1,9-cd]isoxazol-6-one] | 6.25 (≈ 24.4 µM)
CN(C)c1ccc(/C=C2\SC(=S)N(C(Cc3ccccc3)C(=O)O)C2=O)cc1 (centres unmarked) [Compound 1, 2-{5-[4-(dimethylamino)benzylidene]-4-oxo-2-thioxo-1,3-thiazolidin-3-yl}-3-phenylpropanoic acid] | 12.5 (≈ 30.3 µM)
COc1ccc(/C=C\C(=O)C2C(=O)c3ccccc3C2=O)cc1 [Compound 10] | 100 (≈ 326 µM)
CCN1CCc2c(sc(NC(=O)Nc3ccc(Cl)cc3)c2C(N)=O)C1 [Compound 9, 2-({[(4-chlorophenyl)amino]carbonyl}amino)-6-ethyl-4,5,6,7-tetrahydrothieno[2,3-c]pyridine-3-carboxamide] | 100 (≈ 264 µM)
Cc1ccc(Nc2nc3nonc3nc2N)c(C)c1 [Compound 4, N-(2,4-dimethylphenyl)[1,2,5]oxadiazolo [3,4-b]pyrazine-5,6-diamine] | 12.5 (≈ 48.8 µM)
